From patent US10293148B2, “System, retainer and method of preventing and treating nosocomial infections including methicillin-resistant Staphylococcus aureus infections” (priority 2017, dated 2019)

Tested on: S. epidermidis ATCC 12228
Assay: ASTM E1153 sanitizer test on inoculated glass carriers
Type: cell-based, staphylococcus epidermidis
Protocol: As used herein, “CFU” refers to “colony forming unit;” the term “Log Reduction” means Log(B/A), where B=the colony form unit (CFU) number of viable test microorganisms on the control carriers after the contact time and A=the colony form unit (CFU) number of viable test microorganisms on the test carriers after the contact time. All log numbers are base-10 logarithms. […] The experiment was conducted pursuant to the American Society for Testing and Materials (ASTM) E1153, a quantitative test method designed to substantiate sanitizer claims for disinfectants on inanimate, non-porous, non-food contact surfaces. […] The commercial acne products were categorized based on their identified disinfecting ingredient. The representative test microorganism used to conduct the study was staphylococcus epidermidis (“S. epidermidis”). S. epidermidis is a gram-positive, cocci-shaped, facultative anaerobe, living mainly on the skin's surface and mucosa. S. epidermidis is one of the most common organisms contributing to nosocomial infections due to the increase in medical usage of biomaterials. Specifically, S. epidermidis infections are associated with intravascular devices (prosthetic heart valves, shunts, etc.), prosthetic joints, catheters, and postoperative wounds and the urinary tract. […] The ASTM […] protocol includes growing the test microorganism in a liquid culture medium. A series of hard, non-porous glass slides (“carriers”) are inoculated with the representative test microorganisms, and subsequently dried in an incubator. ASTM […] utilizes non-antimicrobial agents as controls to establish baselines for microbial reductions. For this study, each inoculation area was kept to a 10 mm circle to match the output tip of the […] light source. Once completely dried, the inoculated test carriers were treated with the test substances and incubated for the predetermined contact time. […] Each […] light source was set to the high power setting for testing. Control carriers were treated with a buffered saline solution and allowed to sit for the predetermined contact time. At the conclusion of the contact time, treated carriers were transferred to vessels containing neutralizing media. Dilutions of the neutralized test substance were assayed for microbial survivors using appropriate growth media. To determine microbial reduction, the effect of the test substance is compared to the effect of the control substance. […] The percent reduction is determined by evaluating the number of microorganisms on the control carriers after the contact time with the number of viable microorganisms on the test carriers after contact time.

[1] = stand-alone, no light, contact time 10 Seconds, Initial Numbers 1.4E+05
[2] = stand-alone, no light, contact time 20 Seconds, Initial Numbers 1.4E+05
[3] = stand-alone, no light, contact time 30 Seconds, Initial Numbers 1.4E+05
[4] = with Synederm Light (385-515 nm), contact time 10 Seconds, Numbers Control 2.97E+05
[5] = with Synederm Light (385-515 nm), contact time 30 Seconds, Numbers Control 2.97E+05
[6] = with Synederm Light (385-515 nm), contact time 60 Seconds, Numbers Control 2.97E+05
[7] = with Synederm Light (420-480 nm), contact time 10 Seconds, Numbers Control 2.97E+05
[8] = with Synederm Light (420-480 nm), contact time 30 Seconds, Numbers Control 2.97E+05
[9] = with Synederm Light (420-480 nm), contact time 60 Seconds, Numbers Control 2.97E+05
[10] = with Synederm Light (385-515 nm), contact time 10 Seconds, Numbers Control 2.97E+05, listed as 3.0% Hydrogen Peroxide
[11] = with Synederm Light (385-515 nm), contact time 30 Seconds, Numbers Control 2.97E+05, listed as 3.0% Hydrogen Peroxide
[12] = with Synederm Light (385-515 nm), contact time 60 Seconds, Numbers Control 2.97E+05, listed as 3.0% Hydrogen Peroxide
[13] = with Synederm Light (420-480 nm), contact time 10 Seconds, Numbers Control 2.97E+05, listed as 3.0% Hydrogen Peroxide
[14] = with Synederm Light (420-480 nm), contact time 30 Seconds, Numbers Control 2.97E+05, listed as 3.0% Hydrogen Peroxide
[15] = with Synederm Light (420-480 nm), contact time 60 Seconds, Numbers Control 2.97E+05, listed as 3.0% Hydrogen Peroxide

**Q.** For `OO` [0.3% Hydrogen Peroxide, hydrogen peroxide], which CFU/Carrier [1] is on record?
**A.** Its CFU/Carrier is 8.3E+04 CFU/Carrier.

**Q.** What about the “Log10 Reduction Compared to Control” value [1] of the same compound?
**A.** Its value is 0.23 Log10.

**Q.** And the “Percent Reduction Compared to Control” value [1]?
**A.** Its value is 40.7%.

**Q.** And the CFU/Carrier [2]?
**A.** Its CFU/Carrier is 7.50E+04 CFU/Carrier.

**Q.** And the “Log10 Reduction Compared to Control” value [2]?
**A.** The value was 0.27 Log10.

**Q.** And the “Percent Reduction Compared to Control” value [2]?
**A.** The value was 46.4%.

**Q.** What about the CFU/Carrier [3] of the same compound?
**A.** Its CFU/Carrier is 1.20E+05 CFU/Carrier.

**Q.** And the “Log10 Reduction Compared to Control” value [3]?
**A.** The value was 0.07 Log10.

**Q.** And the “Percent Reduction Compared to Control” value [3]?
**A.** The value was 14.3%.

**Q.** What about the CFU/Carrier [4] of the same compound?
**A.** Its CFU/Carrier is 7.58E+4 CFU/Carrier.

**Q.** And the “Log10 Reduction Compared to Control” value [4]?
**A.** Its value is 0.59 Log10.

**Q.** And the “Percent Reduction Compared to Control” value [4]?
**A.** Its value is 74.4%.

**Q.** What about the CFU/Carrier [5] of the same compound?
**A.** Its CFU/Carrier is 3.66E+04 CFU/Carrier.

**Q.** What about the “Log10 Reduction Compared to Control” value [5] of the same compound?
**A.** Its value is 0.91 Log10.

**Q.** And the “Percent Reduction Compared to Control” value [5]?
**A.** The value was 87.7%.

**Q.** What about the CFU/Carrier [6] of the same compound?
**A.** Its CFU/Carrier is 9.10E+03 CFU/Carrier.

**Q.** What about the “Log10 Reduction Compared to Control” value [6] of the same compound?
**A.** The value was 1.51 Log10.

**Q.** And the “Percent Reduction Compared to Control” value [6]?
**A.** Its value is 96.9%.

**Q.** And the CFU/Carrier [7]?
**A.** The CFU/Carrier was 1.30E+05 CFU/Carrier.

**Q.** What about the “Log10 Reduction Compared to Control” value [7] of the same compound?
**A.** The value was 0.36 Log10.

**Q.** What about the “Percent Reduction Compared to Control” value [7] of the same compound?
**A.** Its value is 56.2%.

**Q.** And the CFU/Carrier [8]?
**A.** The CFU/Carrier was 1.30E+05 CFU/Carrier.

**Q.** What about the “Log10 Reduction Compared to Control” value [8] of the same compound?
**A.** The value was 0.36 Log10.

**Q.** What about the “Percent Reduction Compared to Control” value [8] of the same compound?
**A.** Its value is 56.3%.

**Q.** What about the CFU/Carrier [9] of the same compound?
**A.** Its CFU/Carrier is 2.28E+04 CFU/Carrier.

**Q.** What about the “Log10 Reduction Compared to Control” value [9] of the same compound?
**A.** The value was 1.11 Log10.

**Q.** And the “Percent Reduction Compared to Control” value [9]?
**A.** Its value is 92.3%.

**Q.** Which CFU/Carrier [1] does the source give for `OO` [3% Hydrogen Peroxide, hydrogen peroxide] here?
**A.** The CFU/Carrier was 7.50E+04 CFU/Carrier.

**Q.** And the “Log10 Reduction Compared to Control” value [1]?
**A.** Its value is 0.27 Log10.

**Q.** What about the “Percent Reduction Compared to Control” value [1] of the same compound?
**A.** Its value is 46.4%.

**Q.** And the CFU/Carrier [2]?
**A.** The CFU/Carrier was 8.00E+04 CFU/Carrier.

**Q.** And the “Log10 Reduction Compared to Control” value [2]?
**A.** Its value is 0.24 Log10.

**Q.** And the “Percent Reduction Compared to Control” value [2]?
**A.** The value was 42.9%.

**Q.** What about the CFU/Carrier [3] of the same compound?
**A.** The CFU/Carrier was 6.30E+04 CFU/Carrier.

**Q.** What about the “Log10 Reduction Compared to Control” value [3] of the same compound?
**A.** The value was 0.35 Log10.

**Q.** And the “Percent Reduction Compared to Control” value [3]?
**A.** The value was 55%.

**Q.** What about the CFU/Carrier [10] of the same compound?
**A.** The CFU/Carrier was 5.80E+04 CFU/Carrier.

**Q.** What about the “Log10 Reduction Compared to Control” value [10] of the same compound?
**A.** The value was 0.71 Log10.

**Q.** What about the “Percent Reduction Compared to Control” value [10] of the same compound?
**A.** Its value is 80.4%.

**Q.** What about the CFU/Carrier [11] of the same compound?
**A.** Its CFU/Carrier is 1.34E+03 CFU/Carrier.

**Q.** What about the “Log10 Reduction Compared to Control” value [11] of the same compound?
**A.** The value was 2.34 Log10.

**Q.** What about the “Percent Reduction Compared to Control” value [11] of the same compound?
**A.** Its value is 99.5%.

**Q.** What about the CFU/Carrier [12] of the same compound?
**A.** Its CFU/Carrier is under 1.00E+01 CFU/Carrier.

**Q.** And the “Log10 Reduction Compared to Control” value [12]?
**A.** Its value is over 4.55 Log10.

**Q.** What about the “Percent Reduction Compared to Control” value [12] of the same compound?
**A.** The value was over 99.997%.

**Q.** What about the CFU/Carrier [13] of the same compound?
**A.** Its CFU/Carrier is 2.19E+04 CFU/Carrier.

**Q.** What about the “Log10 Reduction Compared to Control” value [13] of the same compound?
**A.** Its value is 1.13 Log10.

**Q.** What about the “Percent Reduction Compared to Control” value [13] of the same compound?
**A.** The value was 92.6%.

**Q.** And the CFU/Carrier [14]?
**A.** The CFU/Carrier was 6.20E+03 CFU/Carrier.

**Q.** And the “Log10 Reduction Compared to Control” value [14]?
**A.** Its value is 1.68 Log10.

**Q.** And the “Percent Reduction Compared to Control” value [14]?
**A.** The value was 97.9%.

**Q.** What about the CFU/Carrier [15] of the same compound?
**A.** Its CFU/Carrier is under 1.00E+01 CFU/Carrier.

**Q.** What about the “Log10 Reduction Compared to Control” value [15] of the same compound?
**A.** Its value is over 4.55 Log10.

**Q.** And the “Percent Reduction Compared to Control” value [15]?
**A.** The value was over 99.997%.

**Q.** What about the “ASTM International passing criteria (3 Log10 or 99.9% reduction)” value (with Synederm light (385-515nm) for 60 seconds) of the same compound?
**A.** Its value is “satisfied the ASTM International passing criteria”.

**Q.** What about the “ASTM International passing criteria (3 Log10 or 99.9% reduction)” value (with Synederm light (420-480nm) for 60 seconds) of the same compound?
**A.** The value was “satisfied the ASTM International passing criteria”.
